The values below come from PMC9212912 (Structure (London, England : 1993), 2022).

The test system of this assay is SARS-CoV-2 (Delta variant, pangolin linage B.1.617.2). Description: microbe, parasite or virus in culture. In kind it is cell-based.

Structures are written as SMILES.

As for `Cc1sc2c(c1C)C(c1ccc(Cl)cc1)=N[C@@H](CC(=O)OC(C)(C)C)c1nnc(C)n1-2` [JQ1], the “Inhibition of SARS-CoV-2 infection in Calu-3 cells” value (0.01 µM) is reported as 72%. A word on the inhibition: it is the change of the read-out against control, counted positive when it falls. In the case of `Cc1sc2c(c1C)C(c1ccc(Cl)cc1)=N[C@@H](CC(=O)Nc1ccc(O)cc1)c1nnc(C)n1-2` [OTX015], under “Severe acute respiratory syndrome coronavirus 2, Calu-3, 24 h, read-out: Inhibition of SARS-CoV-2 infection in Calu-3 cells”, the inhibition at 0.01 µM stood at 69%.
